The values below come from US20140309295A1, “ANTIEPILEPTIC, HYPOCHOLESTEROLEMIC AND NEUROPROTECTIVE COMPOUND” (NEURON BIOPHARMA, S.A., priority 2009, published 2014).

The subject of test [1] is human neuroblastoma SK-N-MC cells. Kind of test: Protection against neuronal death induced by inhibition of PP1 (okadaic acid), WST-1. Format: cell-based. Particulars: 40 μM NST0037; 20 nM okadaic acid. The protocol:
The assay was performed on human neuroblastoma SK-N-MC cells in culture from the American Type Culture Collection (ATCC), in all cases strict rules of sterility were followed and the manipulation was performed in class II biological safety cabinets following European standard EN 12469. The cells were maintained in the following culture medium: Minimum Essential Medium Eagle (MEM) supplemented with 1 mM sodium pyruvate, 2 mM L-glutamine, 0.1 mM non-essential amino acids, 0.05 mg/ml gentamicin and 10% fetal bovine serum.
The inhibition caused by compound NST0037 of cell death caused by the treatment with okadaic acid (OA) which inhibits the activity of protein phosphatase 1 (PP1) was analyzed. OA is one of the most used drugs for studying the phosphorylation mechanism of the tau protein, involved in the pathogenesis and progression of AD. The inhibition of PP1 causes cytoskeleton alterations and mitochondrial damage. […]
The cells were incubated (at 37° C. and 5% CO2) with these treatments for 22 hours, after which time the WST-1 reagent (Roche) was added. […] The formazan which is formed can be detected colorimetrically since it has an absorbance of 440 nm. The reading was taken in a plate reader at 440 nm 2 hours after adding the reagent.
For orientation: Formazan colour is commonly taken as a measure of viable cells.

For test [2], the system named is CD1 mice inoculated with MPTP (subchronic). Kind of test: Subchronic MPTP model of Parkinson's disease in mice. Format: in vivo. How it is done:
All the animals included for the experimental process were 12-week old males of the CD1 strain. The experiments were conducted strictly following the Guidance on the Operation of Animals (Scientific Procedures, Act. 1986). The animals had their respective quarantine period and were treated with maximum precaution to minimize possible contaminations during inoculations and handling.
Twenty animals were used in this assay and the treatments were all conducted by intraperitoneal (i.p.) route with a volume of 100 μl, according to the following regimens: • i) PBS+MPTP+PBS regimen: 10 animals were initially treated with a daily dose for 2 days of PBS, from the second day onwards the animals were inoculated with 1 daily dose of MPTP at 30 mg/Kg for 5 days, at intervals of 2 hours by i.p. route. For the next 21 days they were administered 3 weekly doses of PBS. • ii) NST0037+MPTP+NST0037 regimen: 10 animals were initially treated with a daily dose for 2 days of NST0037 at 50 mg/kg, from the second day onwards the animals were inoculated with 1 daily dose of MPTP at 30 mg/Kg for 5 days, at intervals of 2 hours by i.p. route. For the next 21 days they were administered 3 weekly doses of NST0037 at 50 mg/kg.
Seven days before starting the treatments and at 7, 14 and 21 days post-inoculation of MPTP, the animals were subjected to a locomotor resistance test referred to as the Rotarod test for 2 minutes, recording the time the animals resisted walking over a cylinder which increased its speed from 4 to 40 r.p.m.
Once the treatment time of 21 days ended, the animals were sacrificed and the brains were dissected. The brain samples were processed and included in paraffin. For the analysis of the presence of dopaminergic neurons in the substantia nigra, the immunohistochemistry against the tyrosine-hydroxylase (TH) protein was performed in 5 μm thick sagittal sections.
Once the treatment time of 21 days ended, the animals were sacrificed and the brains were dissected. The brain samples were processed and included in paraffin. […]

Test [3] concerns C57BL6 mice treated with Triton 1339 (Tyloxapol). Description: Hypocholesterolemic effect in induced hyperlipidemia model (Triton 1339). Format: in vivo. The following applies: 50 mg/kg i.p. How it is done: In order to conduct the experiment on the fasting animals, blood was extracted by ocular puncture. The plasma was obtained from said blood, in which plasma total cholesterol levels and levels of its fractions were determined prior to administration of the substances under study. […] After thirty minutes, the animals were intraperitoneally inoculated with 50 mg/kg of each of the test compounds. Seven animals were treated with the vehicle alone and were considered the control group. […] Finally, a third group of seven mice received 50 mg/Kg of NST0037. Twenty-four hours after the treatments, blood was again extracted from the fasting animals and the plasma was obtained from said blood.

Test [4] relates to ApoB100 mice. Kind of test: Hypocholesterolemic effect in endogenous hyperlipidemia model, single i.p. dose. Particulars: 50 mg/kg i.p., 12 hours. Format: in vivo. The protocol:
All the animals included for the experimental process were 46-week old males of the ApoB100 strain, which strain has a deficiency in removing cholesterol from the blood which causes an abnormally high increase of plasma cholesterol. The experiments were conducted strictly following the Guidance on the Operation of Animals (Scientific Procedures, Act. 1986). The animals had their respective quarantine period and were treated with maximum precaution to minimize possible contaminations for inoculations and handling.
In order to conduct the experiment on the fasting animals, blood was extracted by ocular puncture. The plasma was obtained from said blood, in which plasma total cholesterol levels and levels of its fractions were determined prior to administration of the substances under study. Immediately after that, the animals were intraperitoneally inoculated with 50 mg/kg of each of the test compounds. Four animals were treated with the vehicle and were considered the control group. […] Finally, a third group of five mice received 50 mg/Kg of NST0037. Twelve hours after the treatments, blood was again extracted from the fasting animals and the plasma was obtained from said blood.

Turning to `CCC(CC)C(=O)O[C@H]1C[C@@H](C)C=C2C=C[C@H](C)[C@H](CC[C@@H]3C[C@@H](O)CC(=O)O3)[C@H]21` [NST0037, (1S,2S,6R,8S,8aR)-1,2,6,7,8,8a-hexahydro-3,7-dimethyl-8-[2-[(2R,4R)-tetrahydro-4-hydroxy-6-oxo-2H-pyran-2-yl]ethyl]-1-naphthalenyl-2-ethyl-butyrate], the “protection against death caused by OA” value in test [1] turned out to be 57%. For the same compound, the “motor resistance (Rotarod test)” value in test [2] (NST0037+MPTP+NST0037, 50 mg/kg i.p., MPTP 30 mg/Kg daily 5 days, up to 21 days) is listed as “prevents the motor deterioration of the animals”. In test [2] (NST0037+MPTP+NST0037, 21 days), the “dopaminergic neurons (tyrosine-hydroxylase) in substantia nigra” value is “larger number of TH-positive cells” and the “lipid peroxidation (HNE) in neurons of substantia nigra” value was “modest number of isolated neurons with HNE-positive labeling”. In addition, in test [3] (24 hours after Triton 1339), the HDL-c levels result was “not being changed”, the LDL-c levels entry is listed as “reduction being statistically significant”, the VLDL-c levels result is given as “Only simvastatin reduced” and the “esterified cholesterol (EC) levels” value is reported as “reduced”. Further, the “free cholesterol (FC) levels” value in test [3] (24 hours after Triton 1339) was “reduced the levels of this fraction in a similar manner”. Moreover, the total cholesterol increase entry in test [3] (24 hours after Triton 1339 500 mg/kg) is on record as “hypocholesterolemic effect, being statistically significant”. For the same compound, in test [4], the HDL-c levels entry is recorded as “without changing”, the LDL-c levels result is “considerably reduced”, the VLDL-c levels entry was “considerably reduced” and the “esterified cholesterol (EC) levels” value was “reduced the EC levels in a similar manner”. Further, the “free cholesterol (FC) levels” value in test [4] was “without changing FC levels”. Further, the “plasma total cholesterol levels” value in test [4] (male ApoB100 mice) was “significant hypocholesterolemic effect”.
